Results from ChEMBL document CHEMBL1201862, “PubChem BioAssay data set” (2004).
The source made the active and inactive calls.

Assays:
[1] = Counterscreen for activators of the function of SWI/SNF related, matrix associated, actin dependent regulator of chromatin, subfamily a, member 2 (SMARCA2, BRM): Luminescence-based cell-based high throughput dose response assay to identify non-selective compounds using the VP16 reporter assay.; type: functional
[2] = molecular target: E3 ubiquitin-protein ligase UHRF1 (Homo sapiens, UniProt Q96T88); assay: Counterscreen for inhibitors of 5-meCpG-binding domain protein 2 (MBD2): TRFRET-based biochemical high throughput dose response assay to identify inhibitors of binding of ubiquitin-like with PHD and ring finger domains 1 (UHRF1) to methylated oligonucleotide.
HEK293 [3] = assay: cells; conditions: Homo sapiens
HEK293 [4] = assay: cells; conditions: Homo sapiens; remark: listed apart in the source
[5] = molecular target: DNA (cytosine-5)-methyltransferase 1 (Homo sapiens, UniProt P26358); assay: inhibition of DNA methylation by DNMT1 – biochemical, fluorescent molecular beacon, confirmation (AID 602386); type: functional
[6] = molecular target: SWI/SNF-related matrix-associated actin-dependent regulator of chromatin subfamily A member 2 (Homo sapiens, UniProt P51531); assay: Luminescence-based cell-based high throughput dose response assay to identify activators of the function of SWI/SNF related, matrix associated, actin dependent regulator of chromatin, subfamily a, member 2 (SMARCA2, BRM).; type: functional
[7] = molecular target: T1, DNA repair protein RAD52 homolog (Homo sapiens, UniProt P43351); type: functional, biochemical
T1 sequence (P43351 whole entry): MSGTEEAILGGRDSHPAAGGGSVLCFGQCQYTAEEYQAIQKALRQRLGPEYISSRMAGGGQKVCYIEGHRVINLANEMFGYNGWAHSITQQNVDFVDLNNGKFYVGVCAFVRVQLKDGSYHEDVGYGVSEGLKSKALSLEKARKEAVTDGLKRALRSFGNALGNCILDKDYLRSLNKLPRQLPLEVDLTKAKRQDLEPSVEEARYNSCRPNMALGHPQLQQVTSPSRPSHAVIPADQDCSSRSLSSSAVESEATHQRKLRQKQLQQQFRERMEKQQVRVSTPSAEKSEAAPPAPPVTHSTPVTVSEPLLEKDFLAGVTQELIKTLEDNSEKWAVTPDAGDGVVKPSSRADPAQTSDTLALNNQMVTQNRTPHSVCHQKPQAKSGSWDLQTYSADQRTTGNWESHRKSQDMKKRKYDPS

HEK293 [8] = assay: Fluorescence-based counterscreen for potentiators or agonists of NPY-Y2: cell-based high-throughput dose response assay to identify inhibitors of cyclic nucleotide gated ion channel (CNGC) activity. In this assay, the parental HEK293 cell line transfected with a cyclic-nucleotide gated ion channel (CNGC)-based cAMP sensor is used to measure inhibition of isoproterenol-induced CNGC activity by test compound.; type: functional; conditions: Homo sapiens
[9] = molecular target: Neuropeptide Y receptor type 1 (Homo sapiens, UniProt P25929); assay: Fluorescence-based counterscreen for agonists of NPY-Y2: cell-based high-throughput dose response assay for agonists of NPY-Y1.; type: functional
[10] = molecular target: T2, Beta-2 adrenergic receptor (Homo sapiens, UniProt P07550); assay: Dose response for HTS for Beta-2AR agonists via FAP method from Powderset3.; type: functional
[11] = molecular target: Neuropeptide Y receptor type 2 (Homo sapiens, UniProt P49146); assay: Fluorescence-based cell-based high-throughput dose response assay for agonists of NPY-Y2. [Related pubchem assays: 1703 (Screening assay (CNGC inhibitors).), 1359 (Screening assay (NPY-Y2 potentiators or agonists).), 1304 (Screening assay (NPY-Y1 potentiators or agonists).), 1710 (Screening assay (NPY-Y2 agonists).), 1791 (Summary AID.)]; type: functional
[12] = molecular target: T2, Beta-2 adrenergic receptor; assay: ADRB2 activation measured by internalization – cell-based, FAP fluorogen, flow cytometry, cherry pick 1, dose response (AID 588763); type: functional
[13] = molecular target: T3, Corticotropin-releasing factor receptor 2/Corticotropin-releasing factor-binding protein (Homo sapiens, UniProt P24387+Q13324); assay: Dose Response confirmation of uHTS hits for small molecule antagonists of the CRF-binding protein and CRF-R2 receptor complex.; type: functional; conditions: read-out: IC50_Mean
T3 sequence (Q13324 whole entry): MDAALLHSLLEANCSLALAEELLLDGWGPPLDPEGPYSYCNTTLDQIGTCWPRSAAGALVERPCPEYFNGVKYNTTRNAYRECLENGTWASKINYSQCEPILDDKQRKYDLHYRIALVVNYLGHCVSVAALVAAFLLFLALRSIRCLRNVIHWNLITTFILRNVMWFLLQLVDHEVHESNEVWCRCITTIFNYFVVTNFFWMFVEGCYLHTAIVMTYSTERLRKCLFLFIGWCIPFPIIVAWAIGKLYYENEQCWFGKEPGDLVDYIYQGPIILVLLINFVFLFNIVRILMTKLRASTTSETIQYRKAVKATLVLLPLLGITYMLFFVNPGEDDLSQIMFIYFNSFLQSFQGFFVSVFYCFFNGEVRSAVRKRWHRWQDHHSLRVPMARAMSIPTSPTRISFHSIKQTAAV
T3 sequence (P24387 whole entry): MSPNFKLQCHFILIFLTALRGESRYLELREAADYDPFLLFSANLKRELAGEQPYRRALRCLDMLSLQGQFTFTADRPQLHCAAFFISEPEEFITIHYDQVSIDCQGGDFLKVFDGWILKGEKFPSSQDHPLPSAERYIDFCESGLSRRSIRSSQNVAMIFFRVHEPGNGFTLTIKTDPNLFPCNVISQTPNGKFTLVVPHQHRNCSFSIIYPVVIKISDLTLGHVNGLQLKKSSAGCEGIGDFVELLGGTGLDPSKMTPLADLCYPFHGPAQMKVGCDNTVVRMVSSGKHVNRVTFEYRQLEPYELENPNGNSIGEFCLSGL

[14] = molecular target: T3, Corticotropin-releasing factor receptor 2/Corticotropin-releasing factor-binding protein; assay: activators of CRF receptor 2 with binding protein – uHTS hits, confirmation (AID 602473); type: functional; conditions: read-out: EC50_Mean
[15] = restored growth of temperature-sensitive Burl-1 yeast – whole organism, S. cerevisiae, Burl-1 ts mutant, luminescence, counter-screen for SUMOylation pathway inhibitor project, dose response (AID 463199); type: functional
HEK293 [16] = assay: SAR Analysis of small molecule inhibitors of T-cell specific antigen receptor-induced NF-kB activation in a HEK-293T cell line using a luminescence assay - Set 2. [Related pubchem assays (depositor defined):AID435003, AID435012, AID489026]; type: functional, cell-based; conditions: Homo sapiens
Jurkat [17] = assay: SAR Analysis of small molecule inhibitors of T-cell specific antigen receptor-induced NF-kB activation in a Jurkat cell line using a luminescence assay - Set 2. [Related pubchem assays (depositor defined):AID435003, AID435012, AID465]; type: functional, cell-based; conditions: Homo sapiens
HEK293 [18] = assay: HEK293T cell viability loss, resazurin readout – resazurin fluorescence, cytotoxicity control for NF-kB activator project, SAR follow-up (AID 493251); type: functional, cell-based; conditions: Homo sapiens
BJ [19] = assay: cells; type: functional, cell-based; conditions: Homo sapiens
BJ [20] = assay: BJ-TERT fibroblast viability loss – cell-based, RAS-independent, luminescence, dose response (AID 1933); type: functional; conditions: Homo sapiens
[21] = HEK-293T viability loss, compound-treated – cell-based, uHTS hits, cytotoxicity control for B/T-cell NF-kB inhibitor project, dose response (AID 489019); type: functional;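 note: IC50 reflects cytotoxicity as loss of cell viability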
[22] = DRD fibroblast viability loss – cell-based, non-viral oncogenic, luminescence, dose response (AID 1934); type: functional; conditions: Homo sapiens
Jurkat [23] = assay: blockers of NF-kB activation in T cells – Jurkat, luciferase reporter, luminescence, B- and T-cell, dose response (AID 489004); type: functional, cell-based; conditions: Homo sapiens;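 note: NF-kB luciferase reporter Jurkat cells stimulated with PMA plus ionomycin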
BJ [24] = assay: BJ-TERT-LT-ST fibroblast viability loss – cell-based, RAS-independent, luminescence, dose response (AID 1935); type: functional; conditions: Homo sapiens;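 note: BJ fibroblasts immortalized with TERT plus LT and ST oncogenes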
[25] = molecular target: Serine/threonine-protein phosphatase (Candida dubliniensis (strain CD36 / CBS 7987 / NCPF 3949 / NRRLY-17841) (Yeast), UniProt B9W6M3); assay: blockers of CaCl2-induced CDRE-lacZ signaling – S. cerevisiae, luminescence, secondary, dose response (AID 2388); type: functional, cell-based;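 note: yeast reporter cells carrying a calcineurin-responsive lacZ construct stimulated with calcium chloride; luminescent beta-galactosidase reporter signal in whole cells rather than isolated phosphatase activity; potency for inhibition where a drop in reporter signal means calcineurin blockade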
[26] = NIH-3T3 fibroblast cytotoxicity, dose response, cytotoxicity control, cell-based, fluorescence, Alamar Blue, secondary assay (AID 2327); type: functional;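 note: NIH-3T3 mouse fibroblasts cultured with fluconazole at 8 µg/mL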
[27] = fluconazole-exposed Candida albicans growth modulators – fluorescence, retest, confirmation (AID 2467); type: functional, cell-based
[28] = molecular target: ATP-dependent molecular chaperone HSP82 (Candida albicans (strain WO-1) (Yeast), UniProt C4YTQ8); assay: steroid-induced GRE reporter decrease in yeast – S. cerevisiae, luminescence, Hsp90 inhibitor project, dose response (AID 2400); type: functional, cell-based;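 note: beta-galactosidase luminescence from glucocorticoid response element reporter as proxy for Hsp90 function; inhibitor potency where signal loss means Hsp90 inhibition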
Sequence of ATP-dependent molecular chaperone HSP82 (C4YTQ8 whole entry): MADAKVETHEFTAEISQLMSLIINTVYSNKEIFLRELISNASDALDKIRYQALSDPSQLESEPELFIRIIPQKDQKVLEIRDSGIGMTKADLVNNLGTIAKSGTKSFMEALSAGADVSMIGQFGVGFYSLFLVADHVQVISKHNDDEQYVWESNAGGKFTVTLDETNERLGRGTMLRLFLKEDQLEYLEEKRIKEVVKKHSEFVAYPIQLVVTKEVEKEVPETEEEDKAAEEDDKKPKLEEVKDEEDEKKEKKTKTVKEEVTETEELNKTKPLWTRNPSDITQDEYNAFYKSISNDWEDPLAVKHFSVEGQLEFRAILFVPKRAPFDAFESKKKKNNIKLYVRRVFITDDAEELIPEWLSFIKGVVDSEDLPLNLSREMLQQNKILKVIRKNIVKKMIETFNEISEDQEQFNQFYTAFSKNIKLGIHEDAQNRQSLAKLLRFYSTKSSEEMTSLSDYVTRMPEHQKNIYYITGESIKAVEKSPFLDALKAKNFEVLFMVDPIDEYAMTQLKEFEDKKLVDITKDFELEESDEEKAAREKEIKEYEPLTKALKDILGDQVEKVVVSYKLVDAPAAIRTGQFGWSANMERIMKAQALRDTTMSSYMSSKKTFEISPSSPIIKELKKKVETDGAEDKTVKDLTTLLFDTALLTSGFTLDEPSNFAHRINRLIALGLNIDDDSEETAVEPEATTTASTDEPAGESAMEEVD

T2 sequence (P07550 whole entry): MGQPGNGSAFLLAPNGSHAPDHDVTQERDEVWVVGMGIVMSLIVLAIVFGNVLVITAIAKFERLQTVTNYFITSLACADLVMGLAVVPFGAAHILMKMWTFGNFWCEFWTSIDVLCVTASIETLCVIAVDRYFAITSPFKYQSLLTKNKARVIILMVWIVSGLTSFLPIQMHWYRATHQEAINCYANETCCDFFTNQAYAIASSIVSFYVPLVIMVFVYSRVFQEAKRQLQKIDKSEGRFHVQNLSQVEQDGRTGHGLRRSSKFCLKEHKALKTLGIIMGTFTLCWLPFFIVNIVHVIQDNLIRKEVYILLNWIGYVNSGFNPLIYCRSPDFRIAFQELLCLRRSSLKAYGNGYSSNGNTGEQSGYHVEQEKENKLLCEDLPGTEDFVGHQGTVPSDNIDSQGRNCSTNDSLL
Sequence of Serine/threonine-protein phosphatase (B9W6M3 whole entry): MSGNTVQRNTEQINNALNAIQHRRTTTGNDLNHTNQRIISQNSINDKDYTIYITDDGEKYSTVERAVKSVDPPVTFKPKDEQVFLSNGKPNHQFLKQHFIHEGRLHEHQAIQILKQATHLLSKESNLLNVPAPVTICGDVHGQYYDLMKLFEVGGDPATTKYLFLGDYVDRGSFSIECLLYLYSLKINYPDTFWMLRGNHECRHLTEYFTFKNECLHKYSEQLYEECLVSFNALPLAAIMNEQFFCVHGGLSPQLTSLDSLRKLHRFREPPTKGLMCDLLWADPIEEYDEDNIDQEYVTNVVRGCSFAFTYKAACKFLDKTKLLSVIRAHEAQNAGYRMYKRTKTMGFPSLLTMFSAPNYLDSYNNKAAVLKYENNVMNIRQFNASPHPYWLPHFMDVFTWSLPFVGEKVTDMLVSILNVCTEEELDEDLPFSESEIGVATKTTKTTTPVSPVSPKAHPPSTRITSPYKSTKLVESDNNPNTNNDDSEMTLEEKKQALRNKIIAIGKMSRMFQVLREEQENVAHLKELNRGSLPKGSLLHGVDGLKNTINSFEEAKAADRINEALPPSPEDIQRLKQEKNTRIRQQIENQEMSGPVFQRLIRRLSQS
Sequence of E3 ubiquitin-protein ligase UHRF1 (Q96T88 whole entry, the tested form may be a part): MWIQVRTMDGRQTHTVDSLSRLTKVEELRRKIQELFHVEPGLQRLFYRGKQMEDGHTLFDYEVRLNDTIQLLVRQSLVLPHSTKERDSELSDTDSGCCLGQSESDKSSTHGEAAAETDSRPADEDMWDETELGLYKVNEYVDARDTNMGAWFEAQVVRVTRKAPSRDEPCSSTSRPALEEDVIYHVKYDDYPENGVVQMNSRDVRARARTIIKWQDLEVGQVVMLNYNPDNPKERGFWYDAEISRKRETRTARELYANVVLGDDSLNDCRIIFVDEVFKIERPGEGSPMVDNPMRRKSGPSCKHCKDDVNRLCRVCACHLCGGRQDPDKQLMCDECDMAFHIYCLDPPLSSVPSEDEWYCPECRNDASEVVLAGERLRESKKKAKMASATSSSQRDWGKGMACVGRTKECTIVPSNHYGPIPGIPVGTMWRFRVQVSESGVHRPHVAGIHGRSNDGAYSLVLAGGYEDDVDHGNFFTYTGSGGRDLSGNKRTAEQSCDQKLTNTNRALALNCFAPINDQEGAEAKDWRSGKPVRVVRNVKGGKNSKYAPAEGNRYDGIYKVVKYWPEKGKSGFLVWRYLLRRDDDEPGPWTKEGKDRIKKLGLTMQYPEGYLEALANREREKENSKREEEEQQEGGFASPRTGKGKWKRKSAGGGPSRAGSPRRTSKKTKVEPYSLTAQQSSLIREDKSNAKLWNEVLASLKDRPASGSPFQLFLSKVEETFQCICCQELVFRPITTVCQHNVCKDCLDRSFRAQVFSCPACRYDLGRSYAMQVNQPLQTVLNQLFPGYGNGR
Sequence of Neuropeptide Y receptor type 1 (P25929 whole entry): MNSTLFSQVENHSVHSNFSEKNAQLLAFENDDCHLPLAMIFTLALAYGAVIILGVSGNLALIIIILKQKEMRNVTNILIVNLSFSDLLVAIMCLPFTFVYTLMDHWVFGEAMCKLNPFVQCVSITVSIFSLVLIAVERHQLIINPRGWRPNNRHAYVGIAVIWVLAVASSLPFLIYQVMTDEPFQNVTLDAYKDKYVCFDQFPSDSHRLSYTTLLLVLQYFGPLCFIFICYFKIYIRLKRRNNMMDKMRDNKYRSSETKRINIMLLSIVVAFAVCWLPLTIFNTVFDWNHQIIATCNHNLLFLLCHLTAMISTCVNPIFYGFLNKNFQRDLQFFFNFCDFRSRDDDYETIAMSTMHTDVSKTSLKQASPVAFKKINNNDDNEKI
Sequence of DNA (cytosine-5)-methyltransferase 1 (P26358 whole entry): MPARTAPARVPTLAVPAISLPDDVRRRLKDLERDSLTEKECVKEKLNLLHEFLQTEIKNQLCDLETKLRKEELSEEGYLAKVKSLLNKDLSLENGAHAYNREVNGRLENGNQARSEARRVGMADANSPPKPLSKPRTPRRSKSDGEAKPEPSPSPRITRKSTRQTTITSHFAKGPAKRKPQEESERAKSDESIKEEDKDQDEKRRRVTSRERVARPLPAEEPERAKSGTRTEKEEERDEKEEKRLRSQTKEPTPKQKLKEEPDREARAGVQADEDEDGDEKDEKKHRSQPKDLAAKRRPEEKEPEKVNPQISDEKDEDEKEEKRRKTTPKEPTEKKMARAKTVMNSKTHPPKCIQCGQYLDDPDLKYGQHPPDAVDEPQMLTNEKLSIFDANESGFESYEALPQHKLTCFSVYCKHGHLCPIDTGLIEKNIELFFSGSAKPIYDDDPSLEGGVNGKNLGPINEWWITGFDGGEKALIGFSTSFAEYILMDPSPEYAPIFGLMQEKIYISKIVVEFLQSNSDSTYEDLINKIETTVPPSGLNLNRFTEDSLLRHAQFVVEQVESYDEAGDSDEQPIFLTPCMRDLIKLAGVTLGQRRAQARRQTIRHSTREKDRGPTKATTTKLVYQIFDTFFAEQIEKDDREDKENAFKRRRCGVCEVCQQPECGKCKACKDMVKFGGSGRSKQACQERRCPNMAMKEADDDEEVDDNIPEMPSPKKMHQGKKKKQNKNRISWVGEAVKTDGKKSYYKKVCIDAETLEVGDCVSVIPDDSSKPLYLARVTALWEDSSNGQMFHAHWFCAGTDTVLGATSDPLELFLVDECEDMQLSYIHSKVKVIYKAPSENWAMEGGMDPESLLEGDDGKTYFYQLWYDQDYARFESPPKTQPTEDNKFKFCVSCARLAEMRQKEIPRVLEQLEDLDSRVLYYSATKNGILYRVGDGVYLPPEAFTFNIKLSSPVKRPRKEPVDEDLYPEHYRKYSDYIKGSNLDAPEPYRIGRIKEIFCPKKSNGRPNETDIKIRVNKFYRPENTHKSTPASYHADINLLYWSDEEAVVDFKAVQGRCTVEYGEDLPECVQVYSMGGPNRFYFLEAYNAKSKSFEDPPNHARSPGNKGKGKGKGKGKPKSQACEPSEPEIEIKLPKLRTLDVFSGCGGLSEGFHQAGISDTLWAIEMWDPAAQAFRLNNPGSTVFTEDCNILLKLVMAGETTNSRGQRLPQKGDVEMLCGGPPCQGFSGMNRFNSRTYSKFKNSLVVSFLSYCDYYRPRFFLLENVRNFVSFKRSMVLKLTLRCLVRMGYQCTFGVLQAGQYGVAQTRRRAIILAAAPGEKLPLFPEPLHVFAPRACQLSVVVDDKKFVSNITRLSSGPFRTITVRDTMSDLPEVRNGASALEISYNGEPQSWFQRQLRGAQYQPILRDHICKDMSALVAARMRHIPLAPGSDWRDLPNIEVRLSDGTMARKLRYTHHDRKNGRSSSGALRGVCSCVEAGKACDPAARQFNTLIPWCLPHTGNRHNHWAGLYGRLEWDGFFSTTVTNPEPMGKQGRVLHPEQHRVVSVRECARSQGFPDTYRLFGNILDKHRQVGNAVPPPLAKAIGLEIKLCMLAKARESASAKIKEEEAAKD
Sequence of Neuropeptide Y receptor type 2 (P49146 whole entry): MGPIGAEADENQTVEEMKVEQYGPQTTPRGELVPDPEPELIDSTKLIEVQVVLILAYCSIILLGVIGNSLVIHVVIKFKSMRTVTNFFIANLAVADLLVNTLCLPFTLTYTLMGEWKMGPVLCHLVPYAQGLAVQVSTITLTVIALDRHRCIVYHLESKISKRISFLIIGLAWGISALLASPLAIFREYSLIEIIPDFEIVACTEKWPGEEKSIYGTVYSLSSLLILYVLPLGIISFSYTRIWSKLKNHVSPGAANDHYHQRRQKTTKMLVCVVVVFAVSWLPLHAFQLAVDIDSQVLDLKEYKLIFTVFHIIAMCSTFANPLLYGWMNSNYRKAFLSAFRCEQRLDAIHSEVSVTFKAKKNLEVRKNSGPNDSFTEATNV

With `c1ccc2c(c1)C1=NCCN1c1ccccc1-2` the EC50 [1] was > 91.3 µM (inactive), the IC50 [2] was 37 µM (inactive) and the EC50 (HEK293 [3]) was > 59.8 µM (inactive). For the same compound, the EC50 (HEK293 [4]) was > 59.8 µM (inactive), the IC50 [5] was 9.24 µM (active) and the EC50 [6] was > 3.38 µM (active). The AC50 [7] was 5.19 µM (active).

In the case of `Clc1ccc(OCc2nnc(SCc3nc4ccccc4[nH]3)n2Cc2ccco2)cc1`, the EC50 (HEK293 [8]) was > 35.4 µM (not active), the EC50 [9] was > 35.4 µM (not active) and the EC50 [10] was 0.0069 µM (active). For the same compound, the EC50 [11] was > 35.4 µM (not active) and the EC50 [12] was 0.205 µM (active).

In the case of `CCCCn1c(N)c(N(Cc2ccccc2OC)C(=O)c2c(CC)noc2C)c(=O)[nH]c1=O`, the IC50 [13] was > 47.1 µM (inactive), the EC50 [14] was > 53 µM (inactive) and the AC50 [15] was 61.2 µM (active).

With `COc1cc2nc(NC(=O)c3ccccc3)sc(=O)c2cc1OC` the IC50 (HEK293 [16]) was 65.6 µM (inactive), the IC50 (Jurkat [17]) was 0.56 µM (active) and the IC50 (HEK293 [18]) was > 80 µM (inactive). The EC50 (BJ [19]) was > 150 µM (not active), the EC50 (BJ [20]) was 20.1 µM (active) and the IC50 [21] was > 80 µM (inactive). For the same compound, the EC50 [22] was 79 µM (active), the IC50 (Jurkat [23]) was 0.76 µM (active) and the EC50 (BJ [24]) was > 150 µM (inconclusive).

In the case of `Oc1nc(S)nnc1Cc1ccc(Cl)c(Cl)c1`, the EC50 [25] was > 180 µM (inactive), the EC50 [26] was > 160 µM (inactive) and the EC50 [27] was 0.241 µM (active). For the same compound, the EC50 [28] was > 160 µM (inactive).
